Test results reported in patent publication US20260285857A1, “BICYCLIC AND HETEROCYCLIC AMIDE COMPOUNDS” (priority 2024, published 2026).

These molecules were tested on immunoglobulin light chain protein WIL-FL T46L (assay: Differential scanning fluorimetry (thermal shift) assay). Settings: Table A; temperature shift [Tm]compound-[Tm]vehicle; recombinant WIL-FL T46L.
Type: binding

SMILES	DSF
Cc1cc(N2CC[C@](C)(c3ccccc3)C2)cn2nc(C34CC(CN)(C3)OC4(C)C)nc12 [Compound 65]	**** (>1.5-2.5° C.=****)
Cc1cc(N2CC[C@](C)(c3ccccc3)C2)cn2nc(C(=O)N3CCC4(CCN(c5cccc(N)n5)C4)C3)nc12 (some centres unmarked) [Compound 248]	***** (>2.5° C.=*****)
Cc1cc(N2CC[C@](C)(c3ccccc3)C2)cn2nc(C(=O)NC34COC(C(C)(C)O)(C3)C4)nc12 [Compound 123]	***** (>2.5° C.=*****)
Cc1cccc([C@@]2(C)CCN(c3cc(C)c4nc(C(=O)N5CC[C@@]6(CCN(c7cccc(C(=O)O)n7)C6)C5)nn4c3)C2)c1 [Compound 416]	***** (>2.5° C.=*****)
Cc1cc(N2CC[C@](C)(c3ccccc3)C2)cn2nc(C(=O)NC3CC4(CCC4N4CCC(C(=O)O)CC4)C3)nc12 (some centres unmarked) [Compound 374]	***** (>2.5° C.=*****)
Cc1cc(N2CC[C@](C)(c3ccccc3)C2)cn2nc(C(=O)NC3CCC(c4cccc(C(=O)O)n4)CC3)nc12 (some centres unmarked) [Compound 229]	***** (>2.5° C.=*****)
Cc1cc(N2CC[C@](C)(c3ccccc3)C2)cn2nc(C(=O)NC3CCN(c4ncc(S(C)(=N)=O)cn4)C3)nc12 (some centres unmarked) [Compound 237]	***** (>2.5° C.=*****)
C[C@]1(c2ccccc2)CCN(c2cc(CO)c3nc(C(=O)NC4CC5(CCC5N5CC6C(C5)C6C(=O)O)C4)nn3c2)C1 (some centres unmarked) [Compound 346]	***** (>2.5° C.=*****)
Cc1cc(N2CC[C@](C)(c3ccccc3)C2)cc2oc(C(=O)N3CC4CN(c5cccc(C(=O)O)n5)CC4C3)nc12 (stereo partly drawn) [Compound 40, 6-(5-(4-methyl-6-((R)-3-methyl-3-phenylpyrrolidin-1-yl)benzo[d]oxazole-2-carbonyl)hexahydropyrrolo[3,4-c]pyrrol-2(1H)-yl)picolinic acid]	***** (>2.5° C.=*****)
Cc1cc(N2CC[C@](C)(c3ccccc3)C2)cn2nc(C(=O)NCCN3C[C@H](O)[C@@H](O)C3)nc12 [Compound 119]	***** (>2.5° C.=*****)

Same assay, conditions: Table B; temperature shift [Tm]compound-[Tm]vehicle; recombinant WIL-FL T46L

SMILES	DSF
Cc1ccn(C2(C)CCN(c3cc(C)c4nc(C(=O)N5CC[C@@]6(CCN(c7cccc(C(=O)O)n7)C6)C5)nn4c3)C2)n1 (some centres unmarked) [Compound 745]	*** (>1-1.5° C.=***)
Cc1cc(N2CC[C@](C)(c3ccccc3)C2)cn2nc(C34CC(CO3)C4Cc3nnc[nH]3)nc12 (stereo partly drawn) [Compound 505, 2-(5-((4H-1,2,4-triazol-3-yl)methyl)-2-oxabicyclo[2.1.1]hexan-1-yl)-8-methyl-6-((R)-3-methyl-3-phenylpyrrolidin-1-yl)-[1,2,4]triazolo[1,5-a]pyridine]	***** (>2.5° C.=*****)
CCS(=O)(=O)NCC12COC(c3nc4c(C)cc(N5CC[C@](C)(c6ccccc6)C5)cn4n3)(C1)C2c1n[nH]c(C)n1 (some centres unmarked) [Compound 587]	***** (>2.5° C.=*****)
COC(C)(CC(=O)NCC12COC(c3nc4c(C)cc(N5CC[C@](C)(c6ccccc6)C5)cn4n3)(C1)C2c1nc(C)n[nH]1)C(=O)O (some centres unmarked) [Compound 589]	***** (>2.5° C.=*****)
Cc1cc(NC(=O)C23COC(c4nc5c(C)cc(N6CC[C@](C)(c7ccccc7)C6)cn5n4)(C2)C3)cc(C(=O)O)n1 [Compound 452]	***** (>2.5° C.=*****)
Cc1ccc(N2CC[C@@]3(CCN(C(=O)c4nc5c(C)cc(N6CC[C@](C)(c7ccccc7)C6)cn5n4)C3)C2)nc1C(=O)O [Compound 710]	***** (>2.5° C.=*****)
Cc1cc(N2CC[C@](C)(c3ccccc3)C2)cn2nc(C(=O)NC3(C)CCCN(c4cccc(C(=O)O)n4)C3)nc12 (some centres unmarked) [Compound 617]	***** (>2.5° C.=*****)
Cc1cc(N2CC[C@](C)(c3ccccc3)C2)cn2nc(C(=O)N3CCC4(CCC(C(=O)O)O4)C3)nc12 (some centres unmarked) [Compound 594]	***** (>2.5° C.=*****)
Cc1cc(N2CC[C@](C)(c3ccccc3)C2)cn2nc(C(=O)N3CC[C@@]4(CCN(C5CC(C)(C(=O)O)C5)C4)C3)nc12 (some centres unmarked) [Compound 725]	***** (>2.5° C.=*****)
Cc1cc(N2CC[C@](C)(c3ccccc3)C2)cn2nc(C(=O)N3CC[C@@]4(CCN(C(=O)C56COC(C(=O)O)(C5)C6)C4)C3)nc12 [Compound 726]	***** (>2.5° C.=*****)
